Assay results: patent publication US20150141336A1, “Pancreatic Peptide Compounds and Use” (Novo Nordisk A/S, priority 2012, published 2015)
Where two headings read alike, the source gives them in different places.

Columns and labels:
[1] = minipig, in vivo; cited from earlier work
[2] = Assay (X) determination of effect on body weight in mice on high fat diet; type: in vivo, C57B16J mice; details: male C57 DIO mice, s.c., 0.3 μmol/kg once daily; FIG. 1
From the text: Additional assays useful to the invention comprise those that can determine the effect of PP peptides on body weight and/or body composition. An exemplary assay is the following which involves utilization of a diet induced obese male […] mouse model for metabolic disease: […] (Taconic, Denmark) on regular diurnal rhythm and with access to a high fat diet (D12492, Research Diet, USA) are used. The mice are weighed on a weekly basis. Mice are received at age 5 weeks and put on high fat diet and housed at 24 degree Celsius in normal daily rhythm. Mice are group housed 10 per cage during an obesity induction period of 14 weeks. Two weeks before study start mice are single housed (two mice per cage with a dividing wall between). […] Body weight for all mice is recorded daily in combination with dosing. […] Data are analysed in Graph Pad Prism. Change of body weight from baseline in male C57 DIO mice (mean±SEM, n=10) after s.c. administration of compound AF (0.03 μmol/kg once daily or 0.1 μmol/kg every other day) or the reference compound human PP(2-36) (0.3 μmol/kg, once daily) was determined using Assay (X). […] Change of body weight (mean±SEM, n=10-12) and change of body weight from baseline (mean±SEM, n=10) in male […] mice on a high fat diet after administration of vehicle, compound BN (1 μmol/kg/day, s.c.) or reference compound 1 (500 nmol/kg/day, pump) was determined using Assay (X).

[3] = human, in vivo; cited from earlier work

Which half-life [1] does the source give for `CC[C@H](C)[C@H](NC(=O)[C@H](Cc1ccc(O)cc1)NC(=O)[C@H](CCCNC(=N)N)NC(=O)[C@H](CCCNC(=N)N)NC(=O)[C@H](CC(C)C)NC(=O)[C@H](CC(=O)O)NC(=O)[C@H](C)NC(=O)[C@H](C)NC(=O)[C@H](Cc1ccc(O)cc1)NC(=O)[C@H](CCC(N)=O)NC(=O)[C@H](C)NC(=O)[C@H](CCSC)NC(=O)[C@H](CCC(N)=O)NC(=O)[C@H](CCC(=O)O)NC(=O)[C@@H]1CCCN1C(=O)[C@@H](NC(=O)[C@H](C)NC(=O)[C@H](CC(N)=O)NC(=O)[C@H](CC(=O)O)NC(=O)CNC(=O)[C@@H]1CCCN1C(=O)[C@H](Cc1ccc(O)cc1)NC(=O)[C@@H](NC(=O)[C@@H]1CCCN1C(=O)[C@H](CCC(=O)O)NC(=O)[C@H](CC(C)C)NC(=O)[C@@H]1CCCN1C(=O)[C@H](C)N)C(C)C)[C@@H](C)O)C(=O)N[C@@H](CC(N)=O)C(=O)N[C@@H](CCSC)C(=O)N[C@@H](CC(C)C)C(=O)N[C@H](C(=O)N[C@@H](CCCNC(=N)N)C(=O)N1CCC[C@H]1C(=O)N[C@@H](CCCNC(=N)N)C(=O)N[C@@H](Cc1ccc(O)cc1)C(N)=O)[C@@H](C)O` [PP(3-36)] here?
The half-life was “less than 30 minutes”.

For `CC[C@H](C)[C@H](NC(=O)[C@H](Cc1ccc(O)cc1)NC(=O)[C@H](CCCNC(=N)N)NC(=O)[C@H](CCCNC(=N)N)NC(=O)[C@H](CC(C)C)NC(=O)[C@H](CC(=O)O)NC(=O)[C@H](C)NC(=O)[C@H](C)NC(=O)[C@H](Cc1ccc(O)cc1)NC(=O)[C@H](CCC(N)=O)NC(=O)[C@H](C)NC(=O)[C@H](CCSC)NC(=O)[C@H](CCC(N)=O)NC(=O)[C@H](CCC(=O)O)NC(=O)[C@@H]1CCCN1C(=O)[C@@H](NC(=O)[C@H](C)NC(=O)[C@H](CC(N)=O)NC(=O)[C@H](CC(=O)O)NC(=O)CNC(=O)[C@@H]1CCCN1C(=O)[C@H](Cc1ccc(O)cc1)NC(=O)[C@@H](NC(=O)[C@@H]1CCCN1C(=O)[C@H](CCC(=O)O)NC(=O)[C@H](CC(C)C)NC(=O)[C@@H]1CCCN1C(=O)[C@H](C)N)C(C)C)[C@@H](C)O)C(=O)N[C@@H](CC(N)=O)C(=O)N[C@@H](CCSC)C(=O)N[C@@H](CC(C)C)C(=O)N[C@H](C(=O)N[C@@H](CCCNC(=N)N)C(=O)N1CCC[C@H]1C(=O)N[C@@H](CCCNC(=N)N)C(=O)N[C@@H](Cc1ccc(O)cc1)C(N)=O)[C@@H](C)O` [PP(2-36)], which “Change of body weight from baseline” value [2] is on record?
Its value is “reduction in body weight”.

Which half-life [3] does the source give for `CC[C@H](C)[C@H](NC(=O)[C@H](Cc1ccc(O)cc1)NC(=O)[C@H](CCCNC(=N)N)NC(=O)[C@H](CCCNC(=N)N)NC(=O)[C@H](CC(C)C)NC(=O)[C@H](CC(=O)O)NC(=O)[C@H](C)NC(=O)[C@H](C)NC(=O)[C@H](Cc1ccc(O)cc1)NC(=O)[C@H](CCC(N)=O)NC(=O)[C@H](C)NC(=O)[C@H](CCSC)NC(=O)[C@H](CCC(N)=O)NC(=O)[C@H](CCC(=O)O)NC(=O)[C@@H]1CCCN1C(=O)[C@@H](NC(=O)[C@H](C)NC(=O)[C@H](CC(N)=O)NC(=O)[C@H](CC(=O)O)NC(=O)CNC(=O)[C@@H]1CCCN1C(=O)[C@H](Cc1ccc(O)cc1)NC(=O)[C@@H](NC(=O)[C@@H]1CCCN1C(=O)[C@H](CCC(=O)O)NC(=O)[C@H](CC(C)C)NC(=O)[C@@H]1CCCN1C(=O)[C@H](C)N)C(C)C)[C@@H](C)O)C(=O)N[C@@H](CC(N)=O)C(=O)N[C@@H](CCSC)C(=O)N[C@@H](CC(C)C)C(=O)N[C@H](C(=O)N[C@@H](CCCNC(=N)N)C(=O)N1CCC[C@H]1C(=O)N[C@@H](CCCNC(=N)N)C(=O)N[C@@H](Cc1ccc(O)cc1)C(N)=O)[C@@H](C)O` [PP] here?
The half-life was “approximately 10 minutes”.
